From patent US10604554B2, “Double-acylated GLP-1 derivatives” (Novo Nordisk A/S, priority 2012, dated 2020)

Experiments:
[1] = molecular target: T1, human GLP-1 receptor (Homo sapiens, UniProt P43220); experiment: GLP-1 receptor binding (SPA, displacement of 125I-GLP-1)
T1 construct: expressed in transfected cells; host or cells: BHK cells, clone FCW467-12A/KZ10-1 (parent line BHKTS13), further transfected with CRE luciferase
How it was run: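 Tracer [125I]-GLP-1(7-36)NH2 at 0.06 nM final competed on hamster stably transfected cell membranes captured by WGA SPA beads; 120 min, 30 °C, scintillation count.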

[2] = system: Landrace Yorkshire Duroc (LYD) pigs; experiment: Pharmacodynamic (PD) study in pigs, food intake; assay type: in vivo, pig; settings: single s.c. dose 3.0 nmol/kg; for PD in pig, food intake (% of vehicle) for hours 0-24: 0-24 h; for PD in pig, food intake (% of vehicle) for hours 24-48: 24-48 h; for reduction in food intake (in words): versus vehicle
Procedure: The purpose of this experiment was to investigate the effect of a couple of Example compounds on food intake in pigs. This was done in a pharmacodynamic (PD) study as described below, in which food intake was measured from 1 to 4 days after administration of a single dose of the GLP-1 derivative, as compared to a vehicle-treated control group.
Female Landrace Yorkshire Duroc (LYD) pigs, approximately 3 months of age, weighing approximately 30-35 kg were used (n=3-4 per group). The animals were housed in a group for approximately 1 week during acclimatisation to the animal facilities. During the experimental period the animals were placed in individual pens at least 2 days before dosing and during the entire experiment for measurement of individual food intake. The animals were fed ad libitum with pig fodder (Svinefoder Danish Top) at all times both during the acclimatisation and the experimental period. Food intake was monitored on line by logging the weight of fodder every 15 minutes. The system used was Mpigwin (Ellegaard Systems, Faaborg, Denmark).
The phosphate buffer serves as vehicle. Animals are dosed with a single subcutaneous dose of the GLP-1 derivative or vehicle (dose volume 0.025 ml/kg) on the morning of day 1, and food intake is measured for 1 day after dosing. On the last day of each study, 1-4 days after dosing, a blood sample for measurement of plasma exposure of the GLP-1 derivative is taken from the heart in anaesthetised animals. The animals are thereafter euthanised with an intra-cardial overdose of pentobarbitone.
Food intake is calculated as mean±SEM food intake in 24 h intervals (0-24 h, 24-48 h, and 48-72 h). In Table 6 below the food intake is indicated as percentage of the food intake of the vehicle group in the same time interval (dosage 3.0 nmol/kg).
Statistical comparisons of the food intake in the 24 h intervals in the vehicle vs. GLP-1 derivative group are done using two-way-ANOVA repeated measures, followed by Bonferroni post-test.

[3] = Pharmacokinetic (PK) study in rat; settings: male, Sprague Dawley, in vivo, iv, 6 nmol/kg
[4] = Pharmacokinetic (PK) study in minipig; settings: male, Göttingen, in vivo, iv
[5] = Receptor binding affinity IC50 (high HSA), 2.0% HSA (high albumin)
[6] = Receptor binding affinity IC50 (low HSA), 0.001% HSA (low albumin)

T1 sequence (P43220 24-463): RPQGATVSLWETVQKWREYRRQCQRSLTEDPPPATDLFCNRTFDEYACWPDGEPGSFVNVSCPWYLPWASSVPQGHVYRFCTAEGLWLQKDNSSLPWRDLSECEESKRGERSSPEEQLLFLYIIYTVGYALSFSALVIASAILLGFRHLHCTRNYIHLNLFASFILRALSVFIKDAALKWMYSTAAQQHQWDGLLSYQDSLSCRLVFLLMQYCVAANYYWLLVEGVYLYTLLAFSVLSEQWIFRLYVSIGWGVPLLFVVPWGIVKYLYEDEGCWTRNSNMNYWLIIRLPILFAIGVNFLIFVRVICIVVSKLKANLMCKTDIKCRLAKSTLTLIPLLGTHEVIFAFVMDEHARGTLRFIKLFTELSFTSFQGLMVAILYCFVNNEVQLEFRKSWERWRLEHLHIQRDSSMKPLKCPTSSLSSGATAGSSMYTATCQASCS

Compound | IC50 [1, 5] [nM] | IC50 [1, 6] [nM] | PD in pig, food intake (% of vehicle) for hours 0-24 [2] | PD in pig, food intake (% of vehicle) for hours 24-48 [2] | reduction in food intake (in words) [2] | half-life [3] [h] | half-life [4] [h] | PD in pig, food intake (% of vehicle) for hours 48-72 ([2]; 48-72 h)
CC[C@H](C)[C@H](NC(=O)[C@H](Cc1ccccc1)NC(=O)[C@H](CCC(=O)O)NC(=O)[C@H](CCCCNC(=O)[C@@H](N)CCCCNC(=O)[C@@H](N)CCCCNC(=O)CC[C@H](NC(=O)CCCCCCCCCCCOc1ccc(C(=O)O)cc1)C(=O)O)NC(=O)[C@H](C)NC(=O)[C@H](C)NC(=O)[C@H](CCC(N)=O)NC(=O)CNC(=O)[C@H](CCC(=O)O)NC(=O)[C@H](CC(C)C)NC(=O)[C@H](Cc1ccc(O)cc1)NC(=O)[C@H](CO)NC(=O)[C@H](CO)NC(=O)[C@@H](NC(=O)[C@H](CC(=O)O)NC(=O)[C@H](CO)NC(=O)[C@@H](NC(=O)[C@H](Cc1ccccc1)NC(=O)[C@@H](NC(=O)CNC(=O)[C@H](CCC(=O)O)NC(=O)C(C)(C)NC(=O)[C@@H](N)Cc1c[nH]cn1)[C@@H](C)O)[C@@H](C)O)C(C)C)C(=O)N[C@@H](C)C(=O)N[C@@H](Cc1c[nH]c2ccccc12)C(=O)N[C@@H](CC(C)C)C(=O)N[C@H](C(=O)N[C@@H](CCCNC(=N)N)C(=O)NCC(=O)N[C@@H](CCCNC(=N)N)C(=O)N[C@@H](CCCCNC(=O)[C@@H](N)CCCCNC(=O)[C@@H](N)CCCCNC(=O)CC[C@H](NC(=O)CCCCCCCCCCCOc1ccc(C(=O)O)cc1)C(=O)O)C(=O)O)C(C)C [Example 7, N^ε26-[(2S)-2-amino-6-[[(2S)-2-amino-6-[[(4S)-4-carboxy-4-[12-(4-carboxyphenoxy)dodecanoylamino]butanoyl]amino]hexanoyl]amino]hexanoyl], N^ε37-[(2S)-2-amino-6-[[(2S)-2-amino-6-[[(4S)-4-carboxy-4-[12-(4-carboxyphenoxy)dodecanoylamino]butanoyl]amino]hexanoyl]amino]hexanoyl]-[Aib^8,Arg^34,Lys^37]-GLP-1-(7-37)-peptide] | 106 | 0.13 | 14 % of vehicle | 18 % of vehicle | very nice reduction in food intake | 17 | 69 | –
CC[C@H](C)[C@H](NC(=O)[C@H](Cc1ccccc1)NC(=O)[C@H](CCC(=O)O)NC(=O)[C@H](CCCCNC(=O)[C@@H](N)CCCCNC(=O)[C@@H](N)CCCCNC(=O)CC[C@H](NC(=O)CC[C@H](NC(=O)CCCCCCCCCCCOc1ccc(C(=O)O)cc1)C(=O)O)C(=O)O)NC(=O)[C@H](C)NC(=O)[C@H](C)NC(=O)[C@H](CCC(N)=O)NC(=O)CNC(=O)[C@H](CCC(=O)O)NC(=O)[C@H](CC(C)C)NC(=O)[C@H](Cc1ccc(O)cc1)NC(=O)[C@H](CO)NC(=O)[C@H](CO)NC(=O)[C@@H](NC(=O)[C@H](CC(=O)O)NC(=O)[C@H](CO)NC(=O)[C@@H](NC(=O)[C@H](Cc1ccccc1)NC(=O)[C@@H](NC(=O)CNC(=O)[C@H](CCC(=O)O)NC(=O)C(C)(C)NC(=O)[C@@H](N)Cc1c[nH]cn1)[C@@H](C)O)[C@@H](C)O)C(C)C)C(=O)N[C@@H](C)C(=O)N[C@@H](Cc1c[nH]c2ccccc12)C(=O)N[C@@H](CC(C)C)C(=O)N[C@H](C(=O)N[C@@H](CCCNC(=N)N)C(=O)NCC(=O)N[C@@H](CCCNC(=N)N)C(=O)N[C@@H](CCCCNC(=O)[C@@H](N)CCCCNC(=O)[C@@H](N)CCCCNC(=O)CC[C@H](NC(=O)CC[C@H](NC(=O)CCCCCCCCCCCOc1ccc(C(=O)O)cc1)C(=O)O)C(=O)O)C(=O)O)C(C)C [Example 16, N^ε26-[(2S)-2-amino-6-[[(2S)-2-amino-6-[[(4S)-4-carboxy-4-[[(4S)-4-carboxy-4-[12-(4-carboxyphenoxy)dodecanoylamino]butanoyl]amino]butanoyl]amino]hexanoyl]amino]hexanoyl], N^ε37-[(2S)-2-amino-6-[[(2S)-2-amino-6-[[(4S)-4-carboxy-4-[[(4S)-4-carboxy-4-[12-(4-carboxyphenoxy)dodecanoylamino]butanoyl]amino]butanoyl]amino]hexanoyl]amino]hexanoyl]-[Aib^8,Arg^34,Lys^37]-GLP-1-(7-37)-peptide] | 199 | 0.24 | 33 % of vehicle | 43 % of vehicle | – | 17 | 64 | –
CC[C@H](C)[C@H](NC(=O)[C@H](Cc1ccccc1)NC(=O)[C@H](CCC(=O)O)NC(=O)[C@H](CCCCNC(=O)[C@@H](N)CCCCNC(=O)[C@@H](N)CCCCNC(=O)CC[C@H](NC(=O)CCCCCCCCCCOc1ccc(C(=O)O)cc1)C(=O)O)NC(=O)[C@H](C)NC(=O)[C@H](C)NC(=O)[C@H](CCC(N)=O)NC(=O)CNC(=O)[C@H](CCC(=O)O)NC(=O)[C@H](CC(C)C)NC(=O)[C@H](Cc1ccc(O)cc1)NC(=O)[C@H](CO)NC(=O)[C@H](CO)NC(=O)[C@@H](NC(=O)[C@H](CC(=O)O)NC(=O)[C@H](CO)NC(=O)[C@@H](NC(=O)[C@H](Cc1ccccc1)NC(=O)[C@@H](NC(=O)CNC(=O)[C@H](CCC(=O)O)NC(=O)C(C)(C)NC(=O)[C@@H](N)Cc1c[nH]cn1)[C@@H](C)O)[C@@H](C)O)C(C)C)C(=O)N[C@@H](C)C(=O)N[C@@H](Cc1c[nH]c2ccccc12)C(=O)N[C@@H](CC(C)C)C(=O)N[C@H](C(=O)N[C@@H](CCCNC(=N)N)C(=O)NCC(=O)N[C@@H](CCCNC(=N)N)C(=O)N[C@@H](CCCCNC(=O)[C@@H](N)CCCCNC(=O)[C@@H](N)CCCCNC(=O)CC[C@H](NC(=O)CCCCCCCCCCOc1ccc(C(=O)O)cc1)C(=O)O)C(=O)O)C(C)C [Example 20, N^ε26-[(2S)-2-amino-6-[[(2S)-2-amino-6-[[(4S)-4-carboxy-4-[11-(4-carboxyphenoxy)undecanoylamino]butanoyl]amino]hexanoyl]amino]hexanoyl], N^ε37-[(2S)-2-amino-6-[[(2S)-2-amino-6-[[(4S)-4-carboxy-4-[11-(4-carboxyphenoxy)undecanoylamino]butanoyl]amino]hexanoyl]amino]hexanoyl]-[Aib^8,Arg^34,Lys^37]-GLP-1-(7-37)-peptide] | 48 | 0.13 | – | – | – | 14 | 59 | –
CC[C@H](C)[C@H](NC(=O)[C@H](Cc1ccccc1)NC(=O)[C@H](CCC(=O)O)NC(=O)[C@H](CCCCNC(=O)[C@@H](N)CCCCNC(=O)[C@@H](N)CCCCNC(=O)CC[C@H](NC(=O)CCCCCCCNC(=O)CCCCCCCCCOc1ccc(C(=O)O)cc1)C(=O)O)NC(=O)[C@H](C)NC(=O)[C@H](C)NC(=O)[C@H](CCC(N)=O)NC(=O)CNC(=O)[C@H](CCC(=O)O)NC(=O)[C@H](CC(C)C)NC(=O)[C@H](Cc1ccc(O)cc1)NC(=O)[C@H](CO)NC(=O)[C@H](CO)NC(=O)[C@@H](NC(=O)[C@H](CC(=O)O)NC(=O)[C@H](CO)NC(=O)[C@@H](NC(=O)[C@H](Cc1ccccc1)NC(=O)[C@@H](NC(=O)CNC(=O)[C@H](CCC(=O)O)NC(=O)C(C)(C)NC(=O)[C@@H](N)Cc1c[nH]cn1)[C@@H](C)O)[C@@H](C)O)C(C)C)C(=O)N[C@@H](C)C(=O)N[C@@H](Cc1c[nH]c2ccccc12)C(=O)N[C@@H](CC(C)C)C(=O)N[C@H](C(=O)N[C@@H](CCCNC(=N)N)C(=O)NCC(=O)N[C@@H](CCCNC(=N)N)C(=O)N[C@@H](CCCCNC(=O)[C@@H](N)CCCCNC(=O)[C@@H](N)CCCCNC(=O)CC[C@H](NC(=O)CCCCCCCNC(=O)CCCCCCCCCOc1ccc(C(=O)O)cc1)C(=O)O)C(=O)O)C(C)C [Example 26, N^ε26-[(2S)-2-amino-6-[[(2S)-2-amino-6-[[(4S)-4-carboxy-4-[8-[10-(4-carboxyphenoxy)decanoylamino]octanoylamino]butanoyl]amino]hexanoyl]amino]hexanoyl], N^ε37-[(2S)-2-amino-6-[[(2S)-2-amino-6-[[(4S)-4-carboxy-4-[8-[10-(4-carboxyphenoxy)decanoylamino]octanoylamino]butanoyl]amino]hexanoyl]amino]hexanoyl]-[Aib^8,Arg^34,Lys^37]-GLP-1-(7-37)-peptide] | 106 | 0.38 | 10 % of vehicle | 26 % of vehicle | very nice reduction in food intake | 16 | 13 | 52 % of vehicle
